Test results as given in PubChem BioAssay (NCI).
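96-well plates; 48 h exposure; 5 concentrations. Endpoints by linear interpolation between flanking doses. Not reached: highest tested concentration assigned. At the GI50, growth is halved. The concentration for full growth arrest is given as TGI.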

What was measured:
Assay in all cases: DTP human tumour cell line panel, 48 h
A549 NSCLC = tested on: A549 NSCLC
HCT-116 colon = tested on: HCT-116 colon
IGROV1 ovarian = tested on: IGROV1 ovarian
HT29 colon = tested on: HT29 colon
NCI-H226 lung = tested on: NCI-H226 lung
UACC-62 melanoma = tested on: UACC-62 melanoma
OVCAR-3 ovarian = tested on: OVCAR-3 ovarian
SR leukemia = tested on: SR leukemia
OVCAR-4 ovarian = tested on: OVCAR-4 ovarian
MALME-3M melanoma = tested on: MALME-3M melanoma

Row | Compound | GI50 (A549 NSCLC) [µM] | TGI (A549 NSCLC) [µM] | GI50 (HCT-116 colon) [µM] | TGI (HCT-116 colon) [µM] | GI50 (IGROV1 ovarian) [µM] | TGI (IGROV1 ovarian) [µM] | GI50 (HT29 colon) [µM] | TGI (HT29 colon) [µM] | GI50 (NCI-H226 lung) [µM] | TGI (NCI-H226 lung) [µM] | GI50 (UACC-62 melanoma) [µM] | TGI (UACC-62 melanoma) [µM] | GI50 (OVCAR-3 ovarian) [µM] | TGI (OVCAR-3 ovarian) [µM] | GI50 (SR leukemia) [µM] | GI50 (OVCAR-4 ovarian) [µM] | TGI (OVCAR-4 ovarian) [µM] | TGI (SR leukemia) [µM] | GI50 (MALME-3M melanoma) [µM] | TGI (MALME-3M melanoma) [µM]
1 | COc1cc(C(=O)NC2CCN(C)CC2)c(F)cc1Nc1ncc2c(n1)N(C1CCCC1)CC(F)(F)C(=O)N2C | < 0.0184 | 2.31 | < 0.0142 | 12 | < 0.0217 | 14.5 | < 0.01 | 11.1 | 2.64 | 18.7 | < 0.0237 | 13.7 | < 0.0155 | 5.87 | < 0.01 | 0.396 | 14.1 | – | – | –
2 | CCSCCCN(CCCSCC)CCCSCC | – | > 100 | – | > 100 | – | > 100 | – | > 100 | – | – | – | > 100 | – | > 100 | – | – | > 100 | > 100 | – | –
3 | CCCOC(=O)N1CCN(/[N+]([O-])=N/Oc2ccc([N+](=O)[O-])cc2[N+](=O)[O-])CC1 | 3.85 | 22.4 | 0.301 | 1.17 | 1.3 | 4.05 | 2.05 | > 100 | 1.46 | 4.3 | 2.26 | 5.59 | 2.29 | 4.48 | 0.373 | – | – | > 100 | – | –
4 | COc1ccc2c(c1)C(=O)c1c-2c(N(C)C)nc2ccccc12 | > 100 | > 100 | > 100 | > 100 | > 100 | > 100 | > 100 | > 100 | > 100 | > 100 | > 100 | > 100 | – | – | – | 90.2 | > 100 | – | > 100 | > 100
5 | C/C=C(/COC(C)=O)C(=O)OC1C=C(C=O)C(C)(C)C=C1C (stereo unspecified) | – | > 100 | – | > 100 | – | > 100 | – | > 100 | – | > 100 | – | > 100 | – | – | – | – | > 100 | > 100 | – | > 100
6 | COc1ccc(OC)c(-c2c(C#N)c(N)nc(N3CCOCC3)c2C#N)c1 | > 100 | > 100 | > 100 | > 100 | 73.9 | > 100 | > 100 | > 100 | 85.6 | > 100 | 44.5 | > 100 | 39.3 | > 100 | 36.3 | 43.6 | > 100 | > 100 | – | –
7 | COc1ccc(C(=O)C(c2ccc(OC)cc2)C2(O)C(=O)Nc3c2ccc(Cl)c3C)cc1 (stereo unspecified) | – | > 100 | – | > 100 | – | > 100 | – | > 100 | – | > 100 | – | > 100 | – | > 100 | – | – | > 100 | – | – | > 100
8 | COc1ccc(OC)c2c1C(=O)C1CC1(Br)C2=O (stereo unspecified) | – | > 100 | – | > 100 | – | > 100 | – | > 100 | – | – | – | > 100 | – | > 100 | – | – | > 100 | – | – | > 100
9 | CC(=O)C1C(=O)C(=O)N(c2ccccc2C(C)C)C1=O (stereo unspecified) | – | > 100 | – | > 100 | – | > 100 | – | > 100 | – | > 100 | – | > 100 | – | > 100 | – | – | > 100 | – | – | > 100
10 | COc1cc(C2C(Cl)C(=O)N2NC(=O)c2ccc(N)cc2)ccc1O (stereo unspecified) | – | > 100 | – | 47.9 | – | > 100 | – | 45.8 | – | > 100 | – | > 100 | – | 39 | – | – | > 100 | – | – | 32.1
11 | CC1=C(CO)C(=O)O[C@@H]([C@@H](C)[C@H]2CC[C@H]3[C@@H]4C[C@@H](O)[C@@]5(O)CC=CC(=O)[C@]5(C)[C@H]4CC[C@]23C)C1 | – | > 100 | – | 55.5 | – | 31.6 | – | > 100 | – | > 100 | – | > 100 | – | > 100 | – | – | > 100 | – | – | 44.7
12 | O=C(Nc1cccc(NC(=O)Nc2cc(C(F)(F)F)ccc2Cl)c1)Nc1cc(C(F)(F)F)ccc1Cl | 1.95 | 15.8 | 2.41 | 22.8 | 3.52 | 18.8 | 4.26 | 66.1 | 1.85 | 9.28 | 2.35 | 16.8 | – | – | – | 0.746 | 3.61 | – | 4.55 | 44.1
13 | N#CC(c1nc2ccccc2nc1Cl)S(=O)(=O)c1ccccc1 (stereo unspecified) | – | > 100 | – | > 100 | – | – | – | – | – | > 100 | – | > 100 | – | > 100 | – | – | > 100 | > 100 | – | > 100
14 | C[C@]12CC[C@H]3[C@@H](CC[C@]4(O)C[C@@H](O)CC[C@]34/C=N/O)[C@@]1(O)CC[C@@H]2C1=COC(=O)C1 | – | 0.115 | – | 0.165 | – | 2.98 | – | 0.594 | – | 1.35 | – | 0.919 | – | 0.349 | – | – | 0.279 | – | – | 1.09
15 | Cc1ccc(CNc2c3ccccc3nc3cc(NC(=O)CCN4CCCC4)ccc23)cc1 | – | – | 0.39 | 1.42 | – | – | – | – | 1.02 | 2.46 | 1.4 | 2.74 | 0.768 | 2.11 | 0.301 | 0.569 | 2.02 | 1.82 | 1.51 | 2.92
16 | COc1ccc(C2SC(C)C(=O)N2NC(=O)C(O)c2ccccc2)cc1OC (stereo unspecified) | > 100 | > 100 | > 100 | > 100 | > 100 | > 100 | > 100 | > 100 | > 100 | > 100 | > 100 | > 100 | > 100 | > 100 | > 100 | > 100 | > 100 | > 100 | – | –
17 | O=C(NN1C(=O)CSC12CCCC2)c1[nH]c2ccc(Br)cc2c1-c1ccccc1 | 35.5 | > 100 | 26.7 | > 100 | 21.8 | > 100 | 30.7 | > 100 | > 100 | > 100 | 19.7 | > 100 | 18.8 | 56.7 | – | 24.7 | > 100 | – | 38.3 | > 100
